Legend:
Type in all cases: functional
Details in all cases: route intraperitoneal
Mus musculus [1] = assay: Antiparkinsonian activity against haloperidol-induced catalepsy in Mus musculus Swiss albino (mouse) assessed as decrease in mean descent time at 100 mg/kg, ip administered 30 min prior to haloperidol injection measured after 120 min
Mus musculus [2] = assay: Antiparkinsonian activity against haloperidol-induced catalepsy in Mus musculus Swiss albino (mouse) assessed as decrease in mean descent time at 100 mg/kg, ip administered 30 min prior to haloperidol injection measured after 180 min
Mus musculus [3] = assay: Antiparkinsonian activity against haloperidol-induced catalepsy in Mus musculus Swiss albino (mouse) assessed as decrease in mean descent time at 100 mg/kg, ip administered 30 min prior to haloperidol injection measured after 60 min
Mus musculus [4] = assay: Antiparkinsonian activity against haloperidol-induced catalepsy in Mus musculus Swiss albino (mouse) assessed as decrease in mean descent time at 100 mg/kg, ip administered 30 min prior to haloperidol injection measured after 30 min
Mus musculus [5] = assay: Antiparkinsonian activity against haloperidol-induced catalepsy in Mus musculus Swiss albino (mouse) assessed reduction in catalepsy at 100 mg/kg, ip administered 30 min prior to haloperidol injection measured after 30 to 180 min; parameters: scale not given: the % may be the effect or the level left
Mus musculus [6] = assay: Antiparkinsonian activity against haloperidol-induced catalepsy in Mus musculus Swiss albino (mouse) assessed as decrease in mean descent time at 100 mg/kg, ip administered 30 min prior to haloperidol injection measured after 150 min
Mus musculus [7] = assay: Antiparkinsonian activity against haloperidol-induced catalepsy in Mus musculus Swiss albino (mouse) assessed as decrease in mean descent time at 100 mg/kg, ip administered 30 min prior to haloperidol injection measured after 90 min
Mus musculus [8] = assay: Antiparkinsonian activity against haloperidol-induced oxidative stress in Mus musculus Swiss albino (mouse) assessed reduction in lipid peroxidation in brain by measuring malondialdehyde level at 100 mg/kg, ip administered 30 min prior to haloperidol injection by TBARS assay
Mus musculus [9] = assay: Antiparkinsonian activity against haloperidol-induced oxidative stress in Mus musculus Swiss albino (mouse) assessed reduction in glutathione peroxidase activity in brain by measuring malondialdehyde level at 100 mg/kg, ip administered 30 min prior to haloperidol injection
Mus musculus [10] = assay: Antiparkinsonian activity against haloperidol-induced oxidative stress in Mus musculus Swiss albino (mouse) assessed reduction in superoxide dismutase activity in brain by measuring malondialdehyde level at 100 mg/kg, ip administered 30 min prior to haloperidol injection by NBT reduction assay
Mus musculus [11] = assay: Antiparkinsonian activity against haloperidol-induced oxidative stress in Mus musculus Swiss albino (mouse) assessed reduction in glutathione level in brain by measuring malondialdehyde level at 100 mg/kg, ip administered 30 min prior to haloperidol injection

| SMILES | Time (Mus musculus [1]) | Time (Mus musculus [2]) | Time (Mus musculus [3]) | Time (Mus musculus [4]) | Activity (Mus musculus [5]) | Time (Mus musculus [6]) | Time (Mus musculus [7]) | Activity (Mus musculus [8]) | Activity (Mus musculus [9]) | Activity (Mus musculus [10]) | Activity (Mus musculus [11]) |
| --- | --- | --- | --- | --- | --- | --- | --- | --- | --- | --- | --- |
| COc1ccc(NC(=O)Nc2nc3ccccc3s2)cc1 | 160 s | 181 s | 69 s | 43 s | 53.1% | 180 s | 117 s | – | – | – | – |
| O=C(Nc1nc2ccccc2s1)Nc1ccccc1F | 207 s | 241 s | 145 s | 81 s | 30.8% | 223 s | 193 s | – | – | – | – |
| O=C(Nc1ccc(F)cc1)Nc1nc2ccccc2s1 | 219 s | 263 s | 131 s | 70 s | 29.8% | 234 s | 188 s | – | – | – | – |
| O=C(Nc1nc2ccccc2s1)Nc1ccccc1Cl | 205 s | 289 s | 98 s | 57 s | 37.1% | 212 s | 134 s | – | – | – | – |
| O=C(Nc1cccc(Cl)c1)Nc1nc2ccccc2s1 | 182 s | 230 s | 144 s | 101 s | 35.6% | 191 s | 169 s | – | – | – | – |
| O=C(Nc1ccc(Cl)cc1)Nc1nc2ccccc2s1 | 190 s | 220 s | 129 s | 78 s | 37.4% | 207 s | 166 s | – | – | – | – |
| O=C(Nc1nc2ccccc2s1)Nc1cc(C(F)(F)F)ccc1Cl | 118 s | 173 s | 89 s | 77 s | 56.3% | 129 s | 114 s | – | – | – | – |
| O=C(Nc1nc2ccccc2s1)Nc1ccccc1[N+](=O)[O-] | 85 s | 130 s | 56 s | 23 s | 71.4% | 99 s | 77 s | – | – | – | – |
| O=C(Nc1ccc([N+](=O)[O-])cc1)Nc1nc2ccccc2s1 | 199 s | 253 s | 138 s | 90 s | 30.5% | 234 s | 181 s | – | – | – | – |
| Cc1ccccc1NC(=O)Nc1nc2ccccc2s1 | 166 s | 198 s | 101 s | 66 s | 46.9% | 180 s | 134 s | – | – | – | – |
| Cc1ccc(NC(=O)Nc2nc3ccccc3s2)cc1 | 160 s | 185 s | 97 s | 72 s | 47.2% | 171 s | 155 s | – | – | – | – |
| COc1ccccc1NC(=O)Nc1nc2ccccc2s1 | 72 s | 103 s | 34 s | 32 s | 75.9% | 95 s | 65 s | 2.99 nmol/mg | 1.65 U/g | 2.12 U/mg | 12.34 µg/g |
| COc1ccc(NC(=O)Nc2nc3ccccc3s2)c(OC)c1 | 94 s | 149 s | 41 s | 26 s | 69.8% | 107 s | 78 s | – | – | – | – |
| COc1cc(NC(=O)Nc2nc3ccccc3s2)cc(OC)c1OC | 89 s | 122 s | 46 s | 37 s | 70.1% | 115 s | 81 s | – | – | – | – |
| O=C(Nc1ccc(Oc2ccccc2)cc1)Nc1nc2ccccc2s1 | 161 s | 196 s | 67 s | 51 s | 50.5% | 189 s | 126 s | – | – | – | – |
| O=C(NCc1ccco1)Nc1nc2ccccc2s1 | 81 s | 95 s | 29 s | 18 s | 77.3% | 85 s | 72 s | 3.12 nmol/mg | 1.36 U/g | 1.87 U/mg | 16.53 µg/g |
| O=C(Nc1nc2ccccc2s1)Nc1ccccc1Br | 173 s | 224 s | 128 s | 118 s | 36.7% | 201 s | 156 s | – | – | – | – |
| O=C(Nc1ccc(Br)cc1)Nc1nc2ccccc2s1 | 196 s | 216 s | 132 s | 87 s | 35.4% | 211 s | 178 s | – | – | – | – |
| O=C(CCCN1CCC(O)(c2ccc(Cl)cc2)CC1)c1ccc(F)cc1 [HALOPERIDOL] | 300 s | 300 s | 242 s | 155 s | – | 300 s | 264 s | 4.92 nmol/mg | 0.68 U/g | 0.85 U/mg | 5.57 µg/g |
| N[C@@H](Cc1ccc(O)c(O)c1)C(=O)O [LEVODOPA] | 119 s | 137 s | 49 s | 32 s | 65.6% | 122 s | 99 s | – | – | – | – |
| Nc1nc2c(cnn2CCc2ccccc2)c2nc(-c3ccco3)nn12 [SCH-58261] | 45 s | 72 s | 19 s | 11 s | 86.4% | 58 s | 36 s | – | – | – | – |
